Laboratory results reported in ChEMBL document CHEMBL5370601, “Synthesis and Binding Mode Predictions of Novel Siglec-7 Ligands” (J Med Chem, 2023).

Key:
[1] = molecular target: Sialic acid-binding Ig-like lectin 7 (Homo sapiens) (UniProt Q9Y286); experiment: Potency index, ratio of test compound IC50 to (2R,4S,5R,6R)-2-(3-(4-([1,1'-biphenyl]-4-yl)-1H-1,2,3-triazol-1-yl)propoxy)-5-acetamido-6-((1R,2R)-1,2-dihydroxy-3-(methylsulfonamido)propyl)-4-hydroxytetrahydro-2H-pyran-2-carboxylate Sodium IC50 for competitive inhibition of IgG1-fused human Siglec-7 Fc domain preincubated for 10 mins followed by addition of red blood cells incubated for 20 mins on ice by sandwich FACS analysis; conditions: time 30.0 min
[2] = molecular target: Sialic acid-binding Ig-like lectin 7 (Homo sapiens) (UniProt Q9Y286); experiment: Potency index, ratio of test compound IC50 to (2R,4S,5R,6R)-2-(3-(4-([1,1'-biphenyl]-4-yl)-1H-1,2,3-triazol-1-yl)propoxy)-5-acetamido-4-hydroxy-6-((1R,2R)-1,2,3-trihydroxypropyl)tetrahydro-2H-pyran-2-carboxylate Sodium IC50 for competitive inhibition of IgG1-fused human Siglec-7 Fc domain preincubated for 10 mins followed by addition of red blood cells incubated for 20 mins on ice by sandwich FACS analysis; conditions: time 30.0 min
[3] = Solubility in methanol; assay type: physicochemical
[4] = Solubility in water; assay type: physicochemical; conditions: buffer
[5] = Solubility in PBS; assay type: physicochemical; conditions: buffer

Sialic acid-binding Ig-like lectin 7 (Homo sapiens), sequence (Q9Y286 whole entry, the tested form may be a part): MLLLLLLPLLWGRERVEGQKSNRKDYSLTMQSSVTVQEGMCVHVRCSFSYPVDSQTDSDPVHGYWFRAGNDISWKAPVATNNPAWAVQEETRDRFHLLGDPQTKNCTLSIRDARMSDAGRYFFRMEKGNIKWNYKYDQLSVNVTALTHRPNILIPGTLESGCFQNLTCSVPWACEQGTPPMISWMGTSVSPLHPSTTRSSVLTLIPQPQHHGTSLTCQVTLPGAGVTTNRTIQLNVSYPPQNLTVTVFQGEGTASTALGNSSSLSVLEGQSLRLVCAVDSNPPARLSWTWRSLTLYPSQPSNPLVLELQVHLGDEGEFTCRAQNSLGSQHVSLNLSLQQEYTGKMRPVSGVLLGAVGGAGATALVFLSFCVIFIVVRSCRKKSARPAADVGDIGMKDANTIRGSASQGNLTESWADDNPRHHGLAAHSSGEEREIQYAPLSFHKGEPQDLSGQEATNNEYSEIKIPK

| Ratio IC50 [1] | Ratio IC50 [2] | SMILES | other results |
| --- | --- | --- | --- |
| 1.2 | – | CS(=O)(=O)NC[C@@H](O)[C@@H](O)[C@@H]1O[C@@](OCCCn2cc(-c3ccc(-c4ccccc4)cc3)nn2)(C(=O)O)C[C@H](O)[C@H]1NC(=O)CO | – |
| 0.3 | – | CS(=O)(=O)NC[C@@H](O)[C@@H](O)[C@@H]1O[C@@](OCCCn2cc(-c3ccc(-c4ccccc4)cc3)nn2)(C(=O)O)C[C@H](O)[C@H]1NC(=O)COCc1ccccc1 | – |
| – | < 0.5 | CC(=O)N[C@H]1[C@H]([C@H](O)[C@H](O)CCNC(=O)Cc2ccccc2)O[C@@](OCCCn2cc(-c3ccc(-c4ccccc4)cc3)nn2)(C(=O)O)C[C@@H]1O | – |
| – | – | N[C@H]1[C@H]([C@H](O)[C@H](O)CO)O[C@@](OCCCn2cc(-c3ccc(-c4ccccc4)cc3)nn2)(C(=O)O)C[C@@H]1O | solubility [3]: Insoluble; solubility [4]: Insoluble |
| – | 1.5 | O=C(CO)N[C@H]1[C@H]([C@H](O)[C@H](O)CO)O[C@@](OCCCn2cc(-c3ccc(-c4ccccc4)cc3)nn2)(C(=O)O)C[C@@H]1O | – |
| – | – | O=C(COCc1ccccc1)N[C@H]1[C@H]([C@H](O)[C@H](O)CO)O[C@@](OCCCn2cc(-c3ccc(-c4ccccc4)cc3)nn2)(C(=O)[O-])C[C@@H]1O.[Na+] | solubility [4]: Insoluble; solubility [5]: Insoluble |
| – | 0.75 | CC(=O)N[C@H]1[C@H]([C@H](O)[C@H](O)CC(=O)O)O[C@@](OCCCn2cc(-c3ccc(-c4ccccc4)cc3)nn2)(C(=O)O)C[C@@H]1O | – |
| – | < 0.5 | CCC(=O)NCC[C@@H](O)[C@@H](O)[C@@H]1O[C@@](OCCCn2cc(-c3ccc(-c4ccccc4)cc3)nn2)(C(=O)O)C[C@H](O)[C@H]1NC(C)=O | – |

| SMILES | Ratio IC50 [1] | Ratio IC50 [2] | other results |
| --- | --- | --- | --- |
| CS(=O)(=O)NC[C@@H](O)[C@@H](O)[C@@H]1O[C@@](OCCCn2cc(-c3ccc(-c4ccccc4)cc3)nn2)(C(=O)O)C[C@H](O)[C@H]1NC(=O)CF | 1.5 | – | – |
| O=C(CF)N[C@H]1[C@H]([C@H](O)[C@H](O)CO)O[C@@](OCCCn2cc(-c3ccc(-c4ccccc4)cc3)nn2)(C(=O)O)C[C@@H]1O | – | 1.6 | – |
